Test results as given in ChEMBL document CHEMBL1201862, “PubChem BioAssay data set” (2004).
The source made the active and inactive calls.

Assays:
[1] = biological target: T1, Short transient receptor potential channel 4 (Mus musculus, UniProt Q9QUQ5); assay: calcium entry via TRPC4 opening agents – cell-based, HEK293 TRPC4/mu-opioid, Fluo-4 calcium, dose response (AID 434937); format: functional
T1 sequence (Q9QUQ5 whole entry): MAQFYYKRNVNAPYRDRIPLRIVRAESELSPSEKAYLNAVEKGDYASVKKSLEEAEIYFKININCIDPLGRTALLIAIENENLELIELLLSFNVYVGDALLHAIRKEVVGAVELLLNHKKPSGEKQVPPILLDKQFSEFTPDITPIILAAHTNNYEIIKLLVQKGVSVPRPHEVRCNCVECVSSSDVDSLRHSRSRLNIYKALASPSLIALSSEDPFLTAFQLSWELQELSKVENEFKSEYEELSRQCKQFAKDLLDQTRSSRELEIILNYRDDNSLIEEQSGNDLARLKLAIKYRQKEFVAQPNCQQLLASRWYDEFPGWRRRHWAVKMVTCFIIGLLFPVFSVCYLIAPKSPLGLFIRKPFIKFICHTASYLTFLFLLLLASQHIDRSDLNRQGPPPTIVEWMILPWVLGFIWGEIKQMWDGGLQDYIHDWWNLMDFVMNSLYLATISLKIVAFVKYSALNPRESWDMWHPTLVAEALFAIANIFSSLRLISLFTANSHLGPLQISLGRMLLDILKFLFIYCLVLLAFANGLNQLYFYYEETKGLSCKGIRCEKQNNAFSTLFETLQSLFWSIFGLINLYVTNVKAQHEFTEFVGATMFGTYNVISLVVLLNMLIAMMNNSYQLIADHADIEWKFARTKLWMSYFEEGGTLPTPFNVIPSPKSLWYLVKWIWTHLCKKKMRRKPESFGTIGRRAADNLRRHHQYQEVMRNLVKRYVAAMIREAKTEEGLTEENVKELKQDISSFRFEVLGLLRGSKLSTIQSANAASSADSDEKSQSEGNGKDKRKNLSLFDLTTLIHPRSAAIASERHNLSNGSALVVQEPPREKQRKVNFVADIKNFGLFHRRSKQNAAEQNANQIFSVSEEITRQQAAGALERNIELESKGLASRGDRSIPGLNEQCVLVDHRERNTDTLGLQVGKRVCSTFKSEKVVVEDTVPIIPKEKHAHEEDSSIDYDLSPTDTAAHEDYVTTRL

Troponin, cardiac muscle = Troponin, cardiac muscle (Homo sapiens, UniProt P19429+P45379+P63316); assay: Fluorescence-based biochemical high throughput dose response assay for activators of the calcium sensitivity of cardiac Regulated Thin Filaments (RTF). [Related pubchem assays (depositor defined):AID493008, AID493018, AID504382, AID504383]; format: protein-complex assay
[2] = M. tuberculosis H37Rv growth inhibitors, H37Rv strain (AID 1626); format: functional
[3] = Luminescence-based counterscreen assay for KLF5 inhibitors: dose response cell-based high throughput screening assay to identify cytotoxic compounds using the IEC-6 intestinal epithelial cell line. [Related pubchem assays: 1700 (Primary screen.), 1834 (Confirmation screen.), 1858 (Summary AID.), 1905 (Counterscreen.)]; format: functional
NADPH oxidase 1 = NADPH oxidase 1 (Homo sapiens, UniProt Q9Y5S8); format: functional, cell-based;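 also: Cell-based assay with luminescence read-out, IC50 derived from inhibitor dose-response curves; intracellular ROS from endogenous NOX1 in intact HT29 colon cancer cells; potency of inhibitors that lower the ROS luminescence signal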
[4] = biological target: Sphingosine 1-phosphate receptor 2 (Homo sapiens, UniProt O95136); assay: Dose Response Cell Based Assay for Agonists of the S1P2 Receptor of Purchased Analogues. [Related pubchem assays: 729, 843, 854, 736 ]; format: functional
[5] = biological target: Epstein-Barr nuclear antigen 1 (Epstein-Barr virus (strain B95-8) (HHV-4) (Human herpesvirus 4), UniProt P03211); assay: inhibition of EBV nuclear antigen 1 DNA binding – biochemical, fluorescence polarization, 1536-well, dose response (AID 2381); parameters: species or system human gammaherpesvirus 4;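 also: fluorescence polarization of a Cy5 DNA probe bound by EBNA-1 protein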
[6] = biological target: Lytic switch protein BZLF1 (Epstein-Barr virus (strain B95-8) (HHV-4) (Human herpesvirus 4), UniProt P03206); assay: inhibition of BZLF1 ZTA DNA binding – biochemical, fluorescence polarization, Epstein-Barr virus, 1536-well, counter-screen for EBNA-1 inhibitor project, dose response (AID 2377); parameters: species or system human gammaherpesvirus 4;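 also: fluorescence polarization of Cy5-labelled ZRE DNA probe bound by purified Zta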
HeLa = assay: Cytotoxicity counterscreen assay for transcriptional activators of heat shock protein 70 (Hsp70). [Related pubchem assays: 1203, 1252 ]; format: functional; details: Homo sapiens;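 also: cells exposed to compound for 16 hours before readout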
[7] = biological target: T2, Microphthalmia-associated transcription factor (Homo sapiens, UniProt O75030); assay: reducers of TRPM1 reporter luminescence, concentration series – cell-based, SK-MEL-5, cherry-picked, set 3, MITF inhibitor project, dose response (AID 493073); format: functional;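 also: SK-MEL-5 melanoma cells with luciferase driven by the MITF target TRPM1 promoter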
T2 sequence (O75030 whole entry): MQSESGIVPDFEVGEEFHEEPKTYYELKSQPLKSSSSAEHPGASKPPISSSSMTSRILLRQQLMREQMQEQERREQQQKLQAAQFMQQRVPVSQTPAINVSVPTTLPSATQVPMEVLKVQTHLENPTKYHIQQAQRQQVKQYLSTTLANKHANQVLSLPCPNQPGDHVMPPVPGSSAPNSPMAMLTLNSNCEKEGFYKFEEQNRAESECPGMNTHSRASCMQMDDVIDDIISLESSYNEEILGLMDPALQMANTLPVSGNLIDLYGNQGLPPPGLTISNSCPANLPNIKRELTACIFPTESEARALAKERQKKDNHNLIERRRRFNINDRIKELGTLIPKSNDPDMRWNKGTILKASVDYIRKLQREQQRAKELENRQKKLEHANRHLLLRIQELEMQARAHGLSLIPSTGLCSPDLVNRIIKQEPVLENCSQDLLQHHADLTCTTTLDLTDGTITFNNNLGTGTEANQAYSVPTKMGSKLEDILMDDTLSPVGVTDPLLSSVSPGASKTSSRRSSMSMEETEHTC

[8] = non-specific 3'UTR reporter inhibition in Clone20-Shn3RL – cell-based, Renilla luciferase, cherry-picked, counter-screen for Shn3 inhibitor project, dose response (AID 624133); format: functional
[9] = loss of viability in HepG2 cells – cell-based, CellTiter-Glo, cherry-picked, cytotoxicity control for Shn3 inhibitor project, dose response (AID 624134); format: functional
[10] = reduction of Shn3 3'UTR-driven luciferase in osteoblasts – cell-based, Clone20 osteoblasts, firefly luciferase, cherry-picked, dose response (AID 624132); format: functional;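 also: firefly luciferase luminescence from reporter carrying the Shn3 3'UTR in osteoblasts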
[11] = viability loss in A549 lung cancer cells – cell-based, cherry-picks, […], cytotoxicity control, dose response (AID 1053119); format: functional
[12] = biological target: G2/mitotic-specific cyclin-B1 (Homo sapiens, UniProt P14635); assay: Counterscreen assay for inhibitors of Wee1 degradation: dose response cell-based assay to identify inhibitors of cyclin B degradation. [Related pubchem assays: 1410, 1321 ]; format: functional
Wee1-like protein kinase = Wee1-like protein kinase (Homo sapiens, UniProt P30291); assay: Dose Response Cell-based Assay for Inhibitors of Wee1 Degradation. [Related pubchem assays: 1410, 1321 ]; format: functional
Chain of Wee1-like protein kinase (P30291 whole entry): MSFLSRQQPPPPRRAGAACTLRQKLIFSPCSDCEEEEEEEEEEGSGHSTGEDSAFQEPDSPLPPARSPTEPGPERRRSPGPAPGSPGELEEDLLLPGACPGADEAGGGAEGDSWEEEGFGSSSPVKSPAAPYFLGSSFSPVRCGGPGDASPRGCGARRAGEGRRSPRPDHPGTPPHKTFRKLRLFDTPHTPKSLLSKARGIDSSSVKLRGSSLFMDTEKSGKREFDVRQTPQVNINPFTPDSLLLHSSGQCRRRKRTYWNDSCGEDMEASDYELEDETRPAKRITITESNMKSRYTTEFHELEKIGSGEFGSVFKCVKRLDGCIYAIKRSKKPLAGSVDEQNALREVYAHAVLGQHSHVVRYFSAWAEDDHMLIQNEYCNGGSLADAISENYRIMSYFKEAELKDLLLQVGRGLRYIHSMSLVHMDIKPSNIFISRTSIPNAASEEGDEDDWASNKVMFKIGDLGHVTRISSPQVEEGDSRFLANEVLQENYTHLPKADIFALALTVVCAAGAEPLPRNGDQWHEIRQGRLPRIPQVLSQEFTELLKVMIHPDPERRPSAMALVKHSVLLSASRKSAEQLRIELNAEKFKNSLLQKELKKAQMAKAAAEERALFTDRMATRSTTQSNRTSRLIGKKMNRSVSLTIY

Chain of Sphingosine 1-phosphate receptor 2 (O95136 whole entry): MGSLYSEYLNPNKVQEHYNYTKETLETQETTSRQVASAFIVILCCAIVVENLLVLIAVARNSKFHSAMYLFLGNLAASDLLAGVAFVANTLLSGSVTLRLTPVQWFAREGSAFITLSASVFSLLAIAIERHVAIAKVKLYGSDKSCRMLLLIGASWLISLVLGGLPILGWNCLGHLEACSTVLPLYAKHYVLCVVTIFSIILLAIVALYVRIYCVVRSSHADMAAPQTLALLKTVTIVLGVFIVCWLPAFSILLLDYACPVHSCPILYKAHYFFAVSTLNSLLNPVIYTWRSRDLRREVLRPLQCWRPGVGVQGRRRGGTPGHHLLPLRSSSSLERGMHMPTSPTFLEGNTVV
Chain of NADPH oxidase 1 (Q9Y5S8 whole entry): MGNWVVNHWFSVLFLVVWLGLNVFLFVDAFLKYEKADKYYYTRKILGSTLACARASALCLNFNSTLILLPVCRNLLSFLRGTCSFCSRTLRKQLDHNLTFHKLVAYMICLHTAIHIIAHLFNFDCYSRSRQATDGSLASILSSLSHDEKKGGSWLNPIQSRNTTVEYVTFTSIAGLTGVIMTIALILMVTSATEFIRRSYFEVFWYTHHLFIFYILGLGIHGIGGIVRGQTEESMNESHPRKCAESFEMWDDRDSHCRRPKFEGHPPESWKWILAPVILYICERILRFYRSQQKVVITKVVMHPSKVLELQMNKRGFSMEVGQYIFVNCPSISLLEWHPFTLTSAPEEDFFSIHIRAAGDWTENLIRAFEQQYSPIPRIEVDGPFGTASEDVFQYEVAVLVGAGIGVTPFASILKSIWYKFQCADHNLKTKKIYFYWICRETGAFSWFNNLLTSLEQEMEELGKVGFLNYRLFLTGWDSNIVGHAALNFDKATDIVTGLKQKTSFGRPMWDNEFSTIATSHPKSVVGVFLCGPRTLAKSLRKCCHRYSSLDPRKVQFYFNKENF
Chain of Epstein-Barr nuclear antigen 1 (P03211 whole entry): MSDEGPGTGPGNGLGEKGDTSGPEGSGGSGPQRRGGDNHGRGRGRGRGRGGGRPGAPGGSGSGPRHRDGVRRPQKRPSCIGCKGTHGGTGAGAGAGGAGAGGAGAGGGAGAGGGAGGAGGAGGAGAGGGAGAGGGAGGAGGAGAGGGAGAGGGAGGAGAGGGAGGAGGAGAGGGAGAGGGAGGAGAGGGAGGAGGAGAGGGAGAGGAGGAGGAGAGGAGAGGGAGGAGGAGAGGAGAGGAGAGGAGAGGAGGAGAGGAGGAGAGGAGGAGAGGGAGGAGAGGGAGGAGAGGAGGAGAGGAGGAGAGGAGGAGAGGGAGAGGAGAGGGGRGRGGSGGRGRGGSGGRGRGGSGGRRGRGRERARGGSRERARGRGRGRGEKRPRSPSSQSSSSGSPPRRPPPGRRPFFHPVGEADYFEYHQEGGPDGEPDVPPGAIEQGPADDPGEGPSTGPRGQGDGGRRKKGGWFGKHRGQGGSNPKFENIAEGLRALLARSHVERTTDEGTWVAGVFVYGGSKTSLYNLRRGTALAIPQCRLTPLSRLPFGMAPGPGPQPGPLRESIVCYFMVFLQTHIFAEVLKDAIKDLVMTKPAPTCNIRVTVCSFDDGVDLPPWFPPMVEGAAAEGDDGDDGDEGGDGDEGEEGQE
Chain of G2/mitotic-specific cyclin-B1 (P14635 whole entry): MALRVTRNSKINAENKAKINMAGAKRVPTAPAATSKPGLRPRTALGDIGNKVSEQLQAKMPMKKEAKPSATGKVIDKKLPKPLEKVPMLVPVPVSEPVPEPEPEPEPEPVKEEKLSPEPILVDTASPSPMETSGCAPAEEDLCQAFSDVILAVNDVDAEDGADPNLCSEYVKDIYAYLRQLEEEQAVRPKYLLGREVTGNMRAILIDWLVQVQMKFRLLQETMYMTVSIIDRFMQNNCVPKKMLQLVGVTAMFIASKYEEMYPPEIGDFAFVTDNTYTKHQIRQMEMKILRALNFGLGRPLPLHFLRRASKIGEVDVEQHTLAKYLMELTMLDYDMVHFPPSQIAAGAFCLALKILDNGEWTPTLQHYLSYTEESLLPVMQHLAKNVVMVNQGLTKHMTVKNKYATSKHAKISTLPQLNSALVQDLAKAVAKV
Chain of Lytic switch protein BZLF1 (P03206 whole entry): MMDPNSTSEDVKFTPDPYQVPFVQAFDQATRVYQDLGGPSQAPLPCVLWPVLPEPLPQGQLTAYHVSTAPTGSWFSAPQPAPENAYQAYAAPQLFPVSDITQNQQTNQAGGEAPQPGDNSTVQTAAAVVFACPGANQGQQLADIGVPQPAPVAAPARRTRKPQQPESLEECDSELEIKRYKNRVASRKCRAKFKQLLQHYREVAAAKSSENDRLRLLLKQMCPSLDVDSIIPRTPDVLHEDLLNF

CC(C)(C)C(=O)/C=c1\s/c(=C\c2ccc(-c3ccc([N+](=O)[O-])cc3)o2)c(=O)n1CC(=O)NC(N)=O
EC50 [1]: 5.31 µM (active)
EC50 (Troponin, cardiac muscle): 0.565 µM (active)
IC50 [2]: > 100 µM (active)

CCOC(=O)c1sc(NC(=O)c2sc(C)nc2C)nc1C
IC50 [3]: > 39.8 µM (not active)

COc1ccc(-c2nc(-c3ccccc3)c(-c3ccccc3)[nH]2)cc1O
IC50 (NADPH oxidase 1): > 17 µM (not active)

Cc1cc(C(=O)CSc2nnnn2C2CC2)c(C)n1Cc1ccccc1
EC50 [4]: > 30 µM (not active)

COc1cc(NC(=O)c2ccc(Br)cc2)c(OC)cc1NC(=O)c1ccccc1
IC50 [5]: 15.4 µM (not active)
IC50 [6]: > 111 µM (not active)

CS(=O)(=O)N1CCN(c2ccc(NC(=O)c3ccc([N+](=O)[O-])o3)cc2)CC1
CC50 (HeLa): 4.95 µM (active)
AC50 [7]: 4.92 µM (active)
AC50 [8]: 7.78 µM (active)
AC50 [9]: 64.6 µM (active)
AC50 [10]: 5.65 µM (active)
AC50 [11]: 49.3 µM (active)

CCN(CC)c1ccc(/C=N/NC(=O)c2ccco2)cc1
EC50 [12]: > 49.7 µM (not active)
EC50 (Wee1-like protein kinase): > 49.7 µM (not active)
